Laboratory results: patent publication US20240246992A1, “MACROCYCLIC LRRK2 KINASE INHIBITORS” (LES LABORATOIRES SERVIER, priority 2021, published 2024)
Counter-ions that a name gives are not always drawn.

target: human recombinant LRRK2 protein (Homo sapiens, UniProt Q5S007); test: LRRK2 kinase activity assay (ADP-Glo, LRRKtide peptide); format: biochemical; conditions: human recombinant LRRK2 wt, LRRKtide peptide and ATP, 1 h at 37° C.
Procedure: The inhibition of LRRK2 kinase was assessed using human recombinant LRRK2 protein in an in vitro peptide-based kinase assay.
LRRK2 Kinase reactions were carried out in 384-well white polystyrene plates in a final volume of 6 μl using ADP-Glo™ Kinase Assay kit (Promega Corp.). Compound and substrates (LRRKtide peptide and ATP) in assay buffer were first dispensed in wells. Kinase reaction was then started by the addition of human recombinant LRRK2 protein. After 1 h-incubation at 37° C., the enzymatic reactions was stopped by the addition of 6 μl of ADP-Glo Reagent-1 and an additional 40-minutes incubation at 23° C. (residual ATP depletion). A final 30-minutes incubation after 12 μL reagent-2 addition (ADP to ATP conversion and luciferin/luciferase reaction) was performed before luminescent signal acquisition (EnVision™ multimode plate reader—PerkinElmer, Inc.). Data from 10 individual concentrations of tested compounds (N=2) were fitted (XLfit™—ID Business Solutions Ltd) to deliver IC50s (compound concentration leading to 50% inhibition of reference enzymatic activity).
The compounds are dissolved to 5 mM in DMSO. When needed, solutions are sonicated in a bath sonicator.
Table 2 provides the pIC50 values of the compounds according to the invention, obtained using the above mentioned kinase assay. Activities are represented as +++, ++ and +, having the following meanings: • «+++» means an IC50<10 nM • «++» means an IC50<100 nM • «+» means an IC50<1 μM • «−» means an IC50>1 μM

human recombinant LRRK2 protein, sequence (Q5S007 whole entry): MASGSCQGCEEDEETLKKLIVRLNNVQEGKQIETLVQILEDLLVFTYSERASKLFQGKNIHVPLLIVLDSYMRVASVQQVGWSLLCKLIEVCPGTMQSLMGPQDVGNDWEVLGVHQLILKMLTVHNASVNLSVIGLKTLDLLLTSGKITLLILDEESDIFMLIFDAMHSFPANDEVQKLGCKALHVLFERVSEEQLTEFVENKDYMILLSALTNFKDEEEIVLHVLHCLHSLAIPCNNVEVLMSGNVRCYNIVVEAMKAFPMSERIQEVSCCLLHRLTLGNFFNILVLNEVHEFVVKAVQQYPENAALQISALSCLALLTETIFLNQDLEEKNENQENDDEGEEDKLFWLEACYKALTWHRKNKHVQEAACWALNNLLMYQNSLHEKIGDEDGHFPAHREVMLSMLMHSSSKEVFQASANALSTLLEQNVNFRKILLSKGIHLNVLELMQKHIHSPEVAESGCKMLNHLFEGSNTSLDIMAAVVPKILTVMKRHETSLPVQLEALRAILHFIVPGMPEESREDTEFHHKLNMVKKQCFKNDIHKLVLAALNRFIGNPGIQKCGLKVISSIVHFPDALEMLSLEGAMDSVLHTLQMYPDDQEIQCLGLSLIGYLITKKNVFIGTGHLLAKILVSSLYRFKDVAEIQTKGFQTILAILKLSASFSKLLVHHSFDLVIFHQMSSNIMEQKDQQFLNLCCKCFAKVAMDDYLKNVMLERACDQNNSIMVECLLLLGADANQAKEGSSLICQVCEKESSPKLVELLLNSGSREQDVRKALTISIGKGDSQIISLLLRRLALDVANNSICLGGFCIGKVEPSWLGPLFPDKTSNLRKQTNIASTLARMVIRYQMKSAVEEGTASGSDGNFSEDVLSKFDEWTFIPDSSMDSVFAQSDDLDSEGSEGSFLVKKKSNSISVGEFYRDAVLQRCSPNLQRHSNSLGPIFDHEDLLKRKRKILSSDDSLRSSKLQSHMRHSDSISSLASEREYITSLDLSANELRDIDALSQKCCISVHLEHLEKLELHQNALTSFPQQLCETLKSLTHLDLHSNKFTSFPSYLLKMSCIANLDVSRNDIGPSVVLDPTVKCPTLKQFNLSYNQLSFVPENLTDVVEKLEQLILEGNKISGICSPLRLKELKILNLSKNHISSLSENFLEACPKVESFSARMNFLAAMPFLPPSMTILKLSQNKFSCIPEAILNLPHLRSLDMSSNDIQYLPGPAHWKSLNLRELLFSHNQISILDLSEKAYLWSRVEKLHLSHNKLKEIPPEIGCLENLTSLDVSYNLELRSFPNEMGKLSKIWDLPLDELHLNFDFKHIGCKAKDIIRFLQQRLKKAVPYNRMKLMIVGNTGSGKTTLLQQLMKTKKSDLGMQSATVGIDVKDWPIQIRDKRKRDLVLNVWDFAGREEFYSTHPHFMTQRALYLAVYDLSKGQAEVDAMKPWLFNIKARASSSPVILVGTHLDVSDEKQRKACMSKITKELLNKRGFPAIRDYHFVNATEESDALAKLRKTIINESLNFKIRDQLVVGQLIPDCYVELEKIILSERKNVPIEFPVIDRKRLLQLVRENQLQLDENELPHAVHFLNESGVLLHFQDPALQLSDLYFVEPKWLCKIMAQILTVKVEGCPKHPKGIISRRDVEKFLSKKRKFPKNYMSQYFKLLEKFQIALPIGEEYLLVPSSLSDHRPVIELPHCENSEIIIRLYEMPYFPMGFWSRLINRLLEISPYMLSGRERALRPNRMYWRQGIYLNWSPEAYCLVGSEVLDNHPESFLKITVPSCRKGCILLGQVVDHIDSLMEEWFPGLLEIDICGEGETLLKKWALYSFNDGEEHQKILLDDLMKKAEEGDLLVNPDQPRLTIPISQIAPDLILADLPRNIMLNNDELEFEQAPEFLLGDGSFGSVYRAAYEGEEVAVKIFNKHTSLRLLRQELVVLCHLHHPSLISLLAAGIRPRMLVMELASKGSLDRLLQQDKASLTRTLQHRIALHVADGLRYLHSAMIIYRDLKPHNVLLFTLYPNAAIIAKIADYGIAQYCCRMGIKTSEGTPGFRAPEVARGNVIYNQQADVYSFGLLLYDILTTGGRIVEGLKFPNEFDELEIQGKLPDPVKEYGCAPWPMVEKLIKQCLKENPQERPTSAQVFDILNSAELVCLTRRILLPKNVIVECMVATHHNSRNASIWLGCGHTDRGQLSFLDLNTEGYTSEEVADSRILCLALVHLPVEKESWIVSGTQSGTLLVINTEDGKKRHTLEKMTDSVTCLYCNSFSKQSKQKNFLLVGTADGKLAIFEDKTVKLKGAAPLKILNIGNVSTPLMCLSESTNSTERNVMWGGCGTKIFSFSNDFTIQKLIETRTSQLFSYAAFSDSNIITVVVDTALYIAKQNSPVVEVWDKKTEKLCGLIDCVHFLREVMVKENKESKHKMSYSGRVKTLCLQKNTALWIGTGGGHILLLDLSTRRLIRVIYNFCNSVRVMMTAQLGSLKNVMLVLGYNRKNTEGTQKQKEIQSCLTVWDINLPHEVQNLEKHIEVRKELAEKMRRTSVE

Row | SMILES | IC50 [nM]
1 | C[C@@H]1COCCOCC(F)n2cc(cn2)-c2n[nH]c3ccc(cc23)O1 (single isomer, unassigned) [Example 105, (6R*,13R)-6-fluoro-13-methyl-8,11,14-trioxa-4,5,19,20-tetraazatetracyclo[13.5.2.1^2,5.0^18,21]tricosa-1(20),2(23),3, 15(22),16,18(21)-hexaene] | < 10
2 | C[C@@H]1COCCOCC(F)n2cc(cn2)-c2n[nH]c3ccc(cc23)O1 (single isomer, unassigned) [Example 106, (6S*,13R)-6-fluoro-13-methyl-8,11,14-trioxa-4,5,19, 20-tetraazatetracyclo[13.5.2.1^2,5.0^18,21]tricosa-1(20),2(23),3,15(22),16,18(21)-hexaene] | < 100
3 | COCC1CCOc2ccc3[nH]nc(c3c2)-c2cccc(c2)OCC(=O)N1 (single isomer, unassigned) [Example 150, (11S) or (11R)-11-(methoxymethyl)-7,14-dioxa-10,19,20-triazatetracyclo[13.5.2.1^2,6.0^18,21]tricosa-1(20),2(23),3,5,15,17,21-heptaen-9-one] | < 100
4 | COCC1CCOc2ccc3[nH]nc(c3c2)-c2cccc(c2)OCCN1 (single isomer, unassigned) [Example 151, (11S) or (11R)-11-(methoxymethyl)-7,14-dioxa-10,19,20-triazatetracyclo[13.5.2.1^2,6.0^18,21]tricosa-1(20),2(23),3,5,15,17,21-heptaene] | < 100
5 | COCC1CCOc2ccc3[nH]nc(c3c2)-c2cccc(c2)OCC(=O)N1 (single isomer, unassigned) [Example 152, (11R) or (11S)-11-(methoxymethyl)-7,14-dioxa-10,19,20-triazatetracyclo[13.5.2.1^2,6.0^18,21]tricosa-1(20),2(23),3,5,15,17,21-heptaen-9-one] | < 100
6 | COCC1CCOc2ccc3[nH]nc(c3c2)-c2cccc(c2)OCCN1 (single isomer, unassigned) [Example 153, (11R) or (11S)-11-(methoxymethyl)-7,14-dioxa-10,19,20-triazatetracyclo[13.5.2.1^2,6.0^18,21]tricosa-1(20),2(23),3,5,15,17,21-heptaene] | < 100
7 | CC1CNCCCOc2ccc3[nH]nc(c3c2)-c2cc(cc(N3CCOCC3)c2)O1 (single isomer, unassigned) [Example 177, (8R) or (8S)-8-methyl-4-(morpholin-4-yl)-7,14-dioxa-10,19,20-triazatetracyclo[13.5.2.1^2,6.0^18,21]tricosa-1(20),2,4,6(23),15,17,21-heptaene] | < 10
8 | CC1CNCCCOc2ccc3[nH]nc(c3c2)-c2cc(cc(N3CCOCC3)c2)O1 (single isomer, unassigned) [Example 178, (8R) or (8S)-8-methyl-4-(morpholin-4-yl)-7,14-dioxa-10,19,20-triazatetracyclo[13.5.2.1^2,6.0^18,21]tricosa-1(20),2,4,6(23),15,17,21-heptaene] | < 10
9 | C[C@@H]1CNCC[C@H](C)Oc2ccc3[nH]nc(c3c2)-c2cncc(c2)O1 (single isomer, unassigned) [Example 229, (8R or 8S,13S)-8,13-dimethyl-7,14-dioxa-4,10,19,20-tetraazatetracyclo[13.5.2.1^2,6.0^18,21]tricosa-1(20),2,4,6(23),15(22),16,18(21)-heptaene] | < 10
10 | C[C@H]1CCNC[C@H](C)Oc2cncc(c2)-c2n[nH]c3ccc(cc23)O1 (single isomer, unassigned) [Example 230, (8S or 8R,13S)-8,13-dimethyl-7,14-dioxa-4,10,19,20-tetraazatetracyclo[13.5.2.1^2,6.0^18,21]tricosa-1(20),2,4,6(23),15(22),16,18(21)-heptaene] | < 100
11 | C[C@@H]1CNCCO[C@@H](C)c2cncc(c2)-c2n[nH]c3ccc(cc23)O1 (single isomer, unassigned) [Example 234, (7S or 7R,13R)-7,13-dimethyl-8,14-dioxa-4,11,19,20-tetraazatetracyclo[13.5.2.1^2,6.0^18,21]tricosa-1(20),2(23),3,5,15(22),16,18(21)-heptaene] | < 1000
12 | C[C@@H]1CNCCO[C@H](C)c2cncc(c2)-c2n[nH]c3ccc(cc23)O1 (single isomer, unassigned) [Example 235, (7R or 7S,13R)-7,13-dimethyl-8,14-dioxa-4,11,19,20-tetraazatetracyclo[13.5.2.1^2,6.0^18,21]tricosa-1(20),2(23),3,5,15(22),16,18(21)-heptaene] | < 100
13 | c1cc2[nH]nc3c2cc1NCCOCCOc1cc-3cc(N2CCOCC2)c1 [Example 1, 4-(morpholin-4-yl)-7,10-dioxa-13,18,19-triazatetracyclo[12.5.2.1^2,6.0^17,20] docosa-1(19),2(22),3,5,14(21),15,17(20)-heptaene] | < 10
14 | c1cc2[nH]nc3c2cc1OCCCOCCOc1cncc-3c1 [Example 2, 7,10,14-trioxa-4,19,20-triazatetracyclo[13.5.2.1^2,6.0^18,21]tricosa-1(20),2(23), 3,5,15(22),16,18(21)-heptaene] | < 10
15 | c1cc2[nH]nc3c2cc1OCCOCCCOc1cc-3cc(N2CCOCC2)c1 [Example 3, 4-(morpholin-4-yl)-7,11,14-trioxa-19,20-diazatetracyclo[13.5.2.1^2,6.0^18,21] tricosa-1(20),2(23),3,5,15(22),16,18(21)-heptaene] | < 10
16 | c1cc2[nH]nc3c2cc1NCCCOCCOc1cncc-3c1 [Example 4, 7,10-dioxa-4,14,19,20-tetraazatetracyclo[13.5.2.1^2,6.0^18,21]tricosa-1(20),2(23), 3,5,15(22),16,18(21)-heptaene] | < 10
17 | c1cc2[nH]nc3c2cc1OCCCOCCCn1cc-3cn1 [Example 5, 9,13-dioxa-4,5,18,19-tetraazatetracyclo[12.5.2.1^2,5.0^17,20] docosa-1(19),2(22),3,14(21),15,17(20)-hexaene] | < 10
18 | c1cc2[nH]nc3c2cc1OCCCOCCCCn1cc-3cn1 [Example 6, 10,14-dioxa-4,5,19,20-tetraazatetracyclo[13.5.2.1^2,5.0^18,21]tricosa-1(20),2(23), 3,15(22),16,18(21)-hexaene] | < 10
19 | C[C@@H]1COCCCOc2nccc(n2)-c2n[nH]c3ccc(cc23)O1 [Example 7, (13R)-13-methyl-7,11,14-trioxa-5,19,20,23-tetraazatetracyclo[13.5.2.1^2,6.0^18,21]tricosa-1(20),2(23),3,5,15(22),16,18(21)-heptaene] | < 10
20 | C[C@@H]1CCOCCCOc2ccc3[nH]nc(c3c2)-c2cnn1c2 [Example 8, (6R)-6-methyl-9,13-dioxa-4,5,18,19-tetraazatetracyclo[12.5.2.1^2,5.0^17,20] docosa-1(19),2(22),3,14(21),15,17(20)-hexaene] | < 10
21 | C[C@@H]1OCCOC[C@H](C)Oc2ccc3[nH]nc(c3c2)-c2cncc1c2 [Example 9, (7S,13S)-7,13-dimethyl-8,11,14-trioxa-4,19,20-triazatetracyclo[13.5.2.1^2,6.0^18,21]tricosa-1(20),2(23),3,5,15(22),16,18(21)-heptaene] | < 100
22 | C[C@H]1COCCO[C@H](C)c2cncc(c2)-c2n[nH]c3ccc(cc23)O1 [Example 10, (7R,13S)-7,13-dimethyl-8,11,14-trioxa-4,19,20-triazatetracyclo[13.5.2.1^2,6.0^18,21]tricosa-1(20),2,4,6(23),15(22),16,18(21)-heptaene] | < 100
23 | C[C@@H]1COCC[C@H](C)Oc2cncc(c2)-c2n[nH]c3ccc(cc23)O1 [Example 11, (8S,13R)-8,13-dimethyl-7,11,14-trioxa-4,19,20-triazatetracyclo[13.5.2.1^2,6.0^18,21]tricosa-1(20),2(23),3,5,15(22),16,18(21)-heptaene] | < 100
24 | C[C@H]1CCOC[C@H](C)Oc2ccc3[nH]nc(c3c2)-c2cncc(c2)O1 [Example 12, (8S,13S)-8,13-dimethyl-7,11,14-trioxa-4,19,20-triazatetracyclo[13.5.2.1^2,6.0^18,21]tricosa-1(20),2(23),3,5,15(22),16,18(21)-heptaene] | < 100
25 | C[C@@H]1COCCO[C@H](C)c2cncc(c2)-c2n[nH]c3ccc(cc23)O1 [Example 13, (7R,13R)-7,13-dimethyl-8,11,14-trioxa-4,19,20-triazatetracyclo[13.5.2.1^2,6. 0^18,21]tricosa-1(20),2(23),3,5,15(22),16,18(21)-heptaene hydrochloride] | < 100
26 | C[C@@H]1COCCO[C@@H](C)c2cncc(c2)-c2n[nH]c3ccc(cc23)O1 [Example 14, (7S,13R)-7,13-dimethyl-8,11,14-trioxa-4,19,20-triazatetracyclo[13.5.2.1^2,6. 0^18,21]tricosa-1(20),2(23),3,5,15(22),16,18(21)-heptaene hydrochloride] | < 100
27 | C[C@H]1CCOCCCOc2ccc3[nH]nc(c3c2)-c2cnn1c2 [Example 15, (6S)-6-methyl-9,13-dioxa-4,5,18,19-tetraazatetracyclo[12.5.2.1^2,5.0^17,20] docosa-1(19),2(22),3,14(21),15,17(20)-hexaene] | < 10
